Assays:
[1] = tested on: intestinal triglyceride absorption; assay: Inhibition of intestinal triglyceride absorption in vivo (rats); design: species or system male Wistar rats; settings: po; for Absorption ED50 or % inhibition: 2 h; for ED50: Rattus norvegicus, serum triglyceride increase 2 h after triglyceride loading, fasting rats, read-out: Absorption ED50 or % inhibition
Description: The substances which are to be investigated for their triglyceride absorption-inhibiting action in vivo are administered orally to male Wistar rats having a body weight of between 170 and 230 g. For this purpose, the animals are divided into groups of 6 animals 18 hours before administration of the substance and the feed is then withdrawn from them. Drinking water is available to the animals ad libitum. The animals of the control groups receive an aqueous tragacanth suspension or a tragacanth suspension which contains olive oil. The tragacanth-olive oil suspension is prepared using an Ultra-Turrax. The substances to be investigated are suspended directly before substance administration in a corresponding tragacanth-olive oil suspension, also using an Ultra-Turrax.
Before stomach tube application, blood is taken from each rat by puncture of the retroorbital venous plexus to determine the basal serum triglyceride content. The tragacanth suspension, the tragacanth-olive oil suspensions without substance (control animals) and the substances suspended in a corresponding tragacanth-olive oil suspension are then administered to the fasting animals using a stomach tube. Further taking of blood for the determination of the postprandial serum triglyceride rise is carried out, as a rule, 1,2 and 3 hours after stomach tube application.
The blood samples are centrifuged and, after recovering the serum, the triglycerides are determined photometrically using an EPOS analyzer 5060 (Eppendorf Geratebau, Netheler & Hinz GmbH, Hamburg). The triglycerides are determined by fully enzymatic means using a commercially available UV test.
The postprandial serum triglyceride increase is determined by subtraction of the triglyceride preliminary value of each animal from its corresponding postprandial triglyceride concentrations (1,2 and 3 hours after administration).
The differences (in mmol/l) at each time 1, 2 and 3 hours) are averaged in the groups, and the average values of the serum triglyceride increase (ΔTG) of the substance-treated animals are compared with the animals which only received the tragacanth-oil suspension.
Likewise, the serum triglyceride course of the control animals which received only tragacanth is calculated. The substance effect at each time (1, 2 or 3 hours) is determined as follows and given in Δ% of the oil-loaded control. [formula]
Effect of 10 mg of test substance/kg of body weight p.o. on the triglyceride increase (Δ%) 2 h after a triglyceride loading in the serum of fasting rats. The serum triglyceride increase of fat-loaded control animals based on the serum triglyceride level of tragacanth control animals corresponds to 100%. n=6 animals per group.
Statistical assessment was carried out using student3 s t test after prior checking of the variances for homogeneity.

[2] = tested on: ApoB-100-associated lipoproteins; assay: Inhibition of the release of ApoB-100-associated lipoproteins from HepG2 cells (immunoassay for human LDL); type: cell-based; settings: light absorption 450 nm vs solvent control
Description: The test for detecting inhibition of the release of ApoB-100-associated lipoproteins from liver cells was carried out in vitro using cultured liver cells, preferably using cells of the human line HepG2. These cells are grown under standard conditions in medium for the culture of eucaryotic cells, preferably in RPMI 1640 using 10% foetal calf serum. HepG2 cells synthesize and secrete into the culture supernatant ApoB-100-associated lipoprotein particles which in principle are synthesized in a similar manner to the VLDL and LDL particles which are to be found in the plasma.
These particles can be detected using an immunoassay for human LDL. This immunoassay is carried out using antibodies which have been induced in the rabbit against human LDL under standard conditions. The anti-LDL antibodies (rabbit anti-LDL-Ab) were purified by affinity chromatography on an immunosorbent using human LDL. These purified rabbit anti-LDL Ab are adsorbed on the surface of plastic. Expediently, this adsorption is carried out on the plastic surface of microtitre plates having 96 wells, preferably on MaxiSorp plates. If ApoB-100-associated particles are present in the supernatant of Hep-G2 cells, these can bind to the insolubilized rabbit anti-LDL Ab, and an immune complex is formed which is bound to the plastic surface. Unbound proteins are removed by washing. The immune complex located on the plastic surface is detected using monoclonal antibodies which have been induced against human LDL according to standard conditions and purified. These antibodies were conjugated with the enzyme peroxidase. Peroxidase converts the colourless substrate TMB into a coloured product in the presence of H2 O2. After acidification of the reaction mixture using H2 SO4, the specific light absorption at 450 mn is determined, which is a measure of the amount of ApoB-100-associated particles which have been secreted into the culture supernatant by the HepG2 cells.
The IC50 value indicates at which substance concentration the light absorption is inhibited by 50% in comparison with the control (solvent control without substance).

[3] = tested on: VLDL secretion; assay: Inhibition of VLDL secretion in vivo (rat) (Triton rat); settings: for inhibition in vivo at 3 mg/kg: (n.s.) for 112, 114, 117, 154, 175, 176, 227, read-out: Triton rat % TG inhibition (p.o.) 2 h after substance
Description: The action of the test substances on VLDL secretion is also investigated in the rat. To do this, 500 mg/kg of body weight (2.5 ml/kg) of Triton WR-1339, dissolved in physiological saline solution, are administered to rats intravenously in the tail vein. Triton WR-1339 inhibits lipoprotein lipase and thus leads through inhibition of VLDL catabolism to an increase in the triglyceride and cholesterol level. These increases can be used as a measure of the VLDL secretion rate.
Blood is taken from the animals before and one and two hours after administration of the detergent by puncture of the retroorbital venous plexus. The blood is incubated at room temperature for 1 h for clotting and the serum is recovered by centrifugation at 10,000 g for 20 s. The triglycerides are then determined photometrically at a wavelength of 540 nm by means of a commercially available coupled enzyme test (Sigma Diagnostics®, No. 339). Measurement is carried out with the aid of a likewise coupled enzyme test (Boehringer Mannheim®, No. 1442350) at a wavelength of 546 nm. Samples with triglyceride or cholesterol concentrations which exceed the measuring range of the methods are diluted with physiological saline solution. The respective serum concentrations are determined with the aid of standard series measured in parallel. Test substances are administered orally, intravenously or subcutaneously immediately after the Triton injection.

[4] = Homo sapiens, HepG2, HepG2 cells
[5] = Rattus norvegicus, po, 2 h, 3 mg/kg p.o.

Row | SMILES | Absorption ED50 or % inhibition [1] [mg/kg] | IC50 [2, 4] [nM] | further results
1 | Cn1c(=O)c2c(nc(Cc3cccc(Cl)c3)n2Cc2ccc(C(C(=O)N[C@@H](CO)c3ccccc3)C3CCCC3)cc2)n(C)c1=O (stereo partly shown) [Example 191] | > 3 | 14 | –
2 | Cn1c(=O)c2c(nc(-c3ccccn3)n2Cc2ccc(C(C(=O)N[C@@H](CO)c3ccccc3)C3CCCC3)cc2)n(C)c1=O (stereo partly shown) [Example 151] | 6 | 34 | –
3 | Cn1c(=O)c2c(ncn2Cc2ccc(C(C(=O)N[C@@H](CO)c3ccccc3)C3CCCC3)cc2)n(C)c1=O (single isomer, unassigned) [Example 114] | – | – | ED50 [1]: < 2 mg/kg; IC50 ([2]; HepG2 cells): 39 nM; inhibition in vivo at 3 mg/kg [3, 5]: 14.1%
4 | CN(C)c1ccc(-c2nc3c(c(=O)n(C)c(=O)n3C)n2Cc2ccc(C(C(=O)N[C@@H](CO)c3ccccc3)C3CCCC3)cc2)cc1 (stereo partly shown) [Example 149] | > 3 | 9 | –
5 | Cn1c(=O)c2c(nc(-c3ccccc3)n2Cc2ccc(C(C(=O)N[C@@H](CO)c3ccccc3)C3CCCC3)cc2)n(C)c1=O (single isomer, unassigned) [Example 130] | – | – | ED50 [1]: 5 mg/kg; IC50 ([2]; HepG2 cells): 25 nM; inhibition in vivo at 20 mg/kg ([3]; Rattus norvegicus, po, 2 h, 20 mg/kg p.o., read-out: Triton rat % TG inhibition (p.o.) 2 h after substance): 36%
6 | Cn1c(=O)c2c(nc(Cc3ccccc3)n2Cc2ccc(C(C(=O)N[C@@H](CO)c3ccccc3)C3CCCCCC3)cc2)n(C)c1=O (single isomer, unassigned) [Example 175] | – | 32 | inhibition in vivo at 3 mg/kg [3, 5]: 9.8%
7 | Cn1c(=O)c2c(nc(-c3ccc(Cl)cc3)n2Cc2ccc(C(C(=O)N[C@@H](CO)c3ccccc3)C3CCCC3)cc2)n(C)c1=O (stereo partly shown) [Example 140] | > 3 | 10 | –
8 | COc1ccc(Cc2nc3c(c(=O)n(C)c(=O)n3C)n2Cc2ccc(C(C(=O)N[C@@H](CO)c3ccccc3)C3CCCC3)cc2)cc1 (stereo partly shown) [Example 201] | > 3 | 11 | –
9 | Cn1c(=O)c2c(nc(Cc3ccccc3)n2Cc2ccc(C(C(=O)N[C@@H](CO)c3ccccc3)C3CCCCCC3)cc2)n(C)c1=O (single isomer, unassigned) [Example 176] | – | – | IC50 ([2]; HepG2 cells): 19 nM; Triton rat % TG inhibition (p.o.) 2 h after substance ([3]; 3 mg/kg p.o., (n.s.) for 112, 114, 117, 154, 175, 176, 227): 6.2%
10 | Cc1ccc(Cc2nc3c(c(=O)n(C)c(=O)n3C)n2Cc2ccc(C(C(=O)N[C@@H](CO)c3ccccc3)C3CCCC3)cc2)cc1 (stereo partly shown) [Example 182] | 2 | 12 | –
11 | Cc1cccc(Cc2nc3c(c(=O)n(C)c(=O)n3C)n2Cc2ccc(C(C(=O)N[C@@H](CO)c3ccccc3)C3CCCC3)cc2)c1 (stereo partly shown) [Example 179] | > 3 | 5 | –
12 | Cn1c(=O)c2c(nc(C=Cc3ccccc3)n2Cc2ccc(C(C(=O)N[C@@H](CO)c3ccccc3)C3CCCC3)cc2)n(C)c1=O (stereo partly shown) [Example 167] | > 2 | 19 | –
13 | COc1ccc(-c2nc3c(c(=O)n(C)c(=O)n3C)n2Cc2ccc(C(C(=O)N[C@@H](CO)c3ccccc3)C3CCCC3)cc2)cc1 (stereo partly shown) [Example 146] | > 3 | 6 | –
14 | Cc1ccsc1-c1nc2c(c(=O)n(C)c(=O)n2C)n1Cc1ccc(C(C(=O)N[C@@H](CO)c2ccccc2)C2CCCC2)cc1 (stereo partly shown) [Example 160] | 3 | 5 | –
15 | Cc1ccccc1Cc1nc2c(c(=O)n(C)c(=O)n2C)n1Cc1ccc(C(C(=O)N[C@@H](CO)c2ccccc2)C2CCCC2)cc1 (stereo partly shown) [Example 178] | 3 | 64 | –
16 | Cc1cccc(-c2nc3c(c(=O)n(C)c(=O)n3C)n2Cc2ccc(C(C(=O)N[C@@H](CO)c3ccccc3)C3CCCC3)cc2)c1 (stereo partly shown) [Example 133] | 2 | 5 | –
17 | Cn1c(=O)c2c(nc(CC3CCCCC3)n2Cc2ccc(C(C(=O)N[C@@H](CO)c3ccccc3)C3CCCC3)cc2)n(C)c1=O (stereo partly shown) [Example 123] | – | 8 | ED50 [1]: 2 mg/kg
18 | COc1ccccc1Cc1nc2c(c(=O)n(C)c(=O)n2C)n1Cc1ccc(C(C(=O)N[C@@H](CO)c2ccccc2)C2CCCC2)cc1 (stereo partly shown) [Example 197] | 3 | 43 | –
19 | Cn1c(=O)c2c(nc(Cc3ccc(F)cc3)n2Cc2ccc(C(C(=O)N[C@@H](CO)c3ccccc3)C3CCCC3)cc2)n(C)c1=O (single isomer, unassigned) [Example 195] | – | – | IC50 ([2]; HepG2 cells): 5 nM
20 | CCc1nc2c(c(=O)n(C)c(=O)n2C)n1Cc1ccc(C(C(=O)N[C@@H](CO)c2ccccc2)C2CCCC2)cc1 (stereo partly shown) [Example 120] | – | 28 | –
21 | Cn1c(=O)c2c(nc(Br)n2Cc2ccc(C(C(=O)N[C@@H](CO)c3ccccc3)C3CCCC3)cc2)n(C)c1=O (single isomer, unassigned) [Example 118] | – | – | IC50 ([2]; HepG2 cells): 7 nM
22 | COc1cccc(Cc2nc3c(c(=O)n(C)c(=O)n3C)n2Cc2ccc(C(C(=O)N[C@@H](CO)c3ccccc3)C3CCCC3)cc2)c1 (single isomer, unassigned) [Example 199] | – | – | IC50 ([2]; HepG2 cells): 5 nM
23 | Cn1c(=O)c2c(nc(-c3ccc(C(F)(F)F)cc3)n2Cc2ccc(C(C(=O)N[C@@H](CO)c3ccccc3)C3CCCC3)cc2)n(C)c1=O (stereo partly shown) [Example 143] | > 3 | 11 | –
24 | CCc1nc2c(c(=O)n(CC)c(=O)n2CC)n1Cc1ccc(C(C(=O)N[C@@H](CO)c2ccccc2)C2CCCC2)cc1 (stereo partly shown) [Example 215] | – | 3 | –
25 | Cn1c(=O)c2c(nc(-c3ccccc3)n2Cc2ccc(C(C(=O)N[C@@H](CO)c3ccccc3)C3CCCC3)cc2)n(C)c1=O (single isomer, unassigned) [Example 131] | – | – | IC50 ([2]; HepG2 cells): 135 nM
26 | Cn1c(=O)c2c(nc(Cc3ccccc3O)n2Cc2ccc(C(C(=O)N[C@@H](CO)c3ccccc3)C3CCCC3)cc2)n(C)c1=O (stereo partly shown) [Example 204] | – | 16 | –
27 | Cn1c(=O)c2c(nc(Cc3ccccc3)n2Cc2ccc(C(C(=O)N[C@@H](CO)c3ccccc3)C3CCCCCC3)cc2)n(C)c1=O (stereo partly shown) [Example 174] | < 2 | 5 | –
